Data taken from patent US20060069132A1, “Azolecarboxamide herbicides” (priority 2004, published 2006).

Assays:
barnyardgrass [1] = assay: Test B pre-/postemergence herbicide test; type: in vivo, Echinochloa crus-galli; details: for Plant response rating (0 to 100 scale), Barnyardgrass: 0 is no effect, preemergence
How it was run: (§1)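 Flooded paddy rice and barnyardgrass were treated at the 2-leaf stage; upland plantings received compound either on sown seed or on 1- to 4-leaf seedlings. All were kept 13–15 days in a greenhouse and scored visually, 0–100, relative to untreated plants.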

Surinam grass = assay: Test B pre-/postemergence herbicide test; type: in vivo, Urochloa decumbens; details: for Plant response rating (0 to 100 scale), Surinam Grass: 0 is no effect, 100 is complete control, preemergence
How it was run: (§2)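 Response was scored visually 13 to 15 days after treatment against untreated greenhouse controls, 0 meaning no effect and 100 complete control. Formulations (solvent mixture plus surfactant) went onto soil after planting, onto foliage of 1- to 4-leaf plants, and onto 2-leaf plants in a flooded paddy set including rice and barnyardgrass.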

cocklebur = assay: Test B pre-/postemergence herbicide test; type: in vivo, Xanthium strumarium; details: for Plant response rating (0 to 100 scale), Cocklebur: 0 is no effect, preemergence
How it was run: as §1

corn = assay: Test B pre-/postemergence herbicide test; type: in vivo, Zea mays; details: for Plant response rating (0 to 100 scale), Corn: 0 is no effect, preemergence
How it was run: as §2

large crabgrass = assay: Test B pre-/postemergence herbicide test; type: in vivo, Digitaria sanguinalis; details: for Plant response rating (0 to 100 scale), Crabgrass, Large: 0 is no effect, preemergence
How it was run: as §2

giant foxtail = assay: Test B pre-/postemergence herbicide test; type: in vivo, Setaria faberi; details: for Plant response rating (0 to 100 scale), Foxtail, Giant: 0 is no effect, preemergence
How it was run: as §2

lambsquarters = assay: Test B pre-/postemergence herbicide test; type: in vivo, Chenopodium album; details: for Plant response rating (0 to 100 scale), Lambsquarters: 0 is no effect, 100 is complete control, preemergence
How it was run: as §2

morningglory = assay: Test B pre-/postemergence herbicide test; type: in vivo, Ipomoea coccinea; details: for Plant response rating (0 to 100 scale), Morningglory: 0 is no effect, 100 is complete control, preemergence
How it was run: as §1

pigweed = assay: Test B pre-/postemergence herbicide test; type: in vivo, Amaranthus retroflexus; details: 125 g ai/ha; for Plant response rating (0 to 100 scale), Pigweed: 0 is no effect, 100 is complete control, preemergence
How it was run: as §2

velvetleaf = assay: Test B pre-/postemergence herbicide test; type: in vivo, Abutilon theophrasti; details: for Plant response rating (0 to 100 scale), Velvetleaf: 0 is no effect, 100 is complete control, preemergence
How it was run: as §2

blackgrass = assay: Test B postemergence herbicide test; type: in vivo, Alopecurus myosuroides
How it was run: (§3)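 After treating 2-leaf paddy plants or 2–18 cm postemergence plants (1 to 4 leaves) with formulated chemical, researchers kept them in a greenhouse for 13–15 days. Effects were judged visually versus controls: 0 indicates none, 100 total control.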

wheat = assay: Test B postemergence herbicide test; type: in vivo, Triticum aestivum; design: key to Wheat plant response rating: 0 = no effect, 100 = complete control
How it was run: as §3

wild oat = assay: Test B postemergence herbicide test; type: in vivo, Avena fatua; details: scale 0 (no effect) to 100 (complete control)
How it was run: as §3

rice = assay: Test B flooded paddy test; type: in vivo, Oryza sativa; details: 1000 g ai/ha, scale 0 to 100 (0 no effect, 100 complete control)
How it was run: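 Postemergence plants were sprayed with formulated test chemicals at 2 to 18 cm height (1- to 4-leaf stage); paddy species were grown to the 2-leaf stage. After 13 to 15 days in a greenhouse, injury was rated visually against untreated controls on a 0–100 scale (0 = no effect, 100 = complete control).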

[2] = tested on: small flower umbrella sedge; assay: Test B flooded paddy test; type: in vivo, Cyperus difformis; details: 1000 g ai/ha, scale 0 to 100 (0 no effect, 100 complete control)
How it was run: as §3

ducksalad = assay: Test B flooded paddy test; type: in vivo, Heteranthera limosa; details: 1000 g ai/ha, scale 0 to 100 (0 no effect, 100 complete control)
How it was run: as §3

barnyardgrass [3] = assay: Test B flooded paddy test; type: in vivo, Echinochloa crus-galli; details: 1000 g ai/ha, scale 0 to 100 (0 no effect, 100 complete control)
How it was run: as §3

[4] = 125 g ai/ha, 100 is complete control
[5] = 125 g ai/ha, visual rating, scale 0 (no effect) to 100 (complete control), postemergence
[6] = postemergence, 500 g ai/ha, scale 0 to 100, 0 is no effect, 100 is complete control
[7] = Postemergence, 500 g ai/ha, scale 0 (no effect) to 100 (complete control)

CCNC(=O)c1cccc(NC(=O)c2nn(C(C)(C)C)nc2CC)c1 [Compound 365, 2-(1,1-dimethylethyl)-5-ethyl-N-[3-[(ethylamino)carbonyl]phenyl]-2H-1,2,3-triazole-4-carboxamide] was tested, and the “Plant response rating (0 to 100 scale), Barnyardgrass” value (barnyardgrass [1]; [4]) was 90, the pest or weed control at 125 g/ha (barnyardgrass [1]; Echinochloa crus-galli, post-emergence, 125 g ai/ha, visual rating, scale 0 (no effect) to 100 (complete control), read-out: Barnyardgrass plant response rating) was 0% and the pest or weed control at 500 g/ha (barnyardgrass [1]; Echinochloa crus-galli, post-emergence, postemergence, 500 g ai/ha, scale 0 to 100, 0 is no effect, 100 is complete control, read-out: Barnyardgrass plant response rating) was 10%. For the same compound, the “Plant response rating (0 to 100 scale), Surinam Grass” value (Surinam grass; 125 g ai/ha) was 70, the pest or weed control at 125 g/ha (Surinam grass; Urochloa decumbens, post-emergence, 125 g ai/ha, visual rating, scale 0 (no effect) to 100 (complete control), read-out: Surinam Grass plant response rating) was 10% and the “Plant response rating (0 to 100 scale), Cocklebur” value (cocklebur; [4]) was 10. For the same compound, the pest or weed control at 125 g/ha (cocklebur; Xanthium strumarium, post-emergence, 125 g ai/ha, visual rating, scale 0 (no effect) to 100 (complete control), read-out: Cocklebur plant response rating) was 20%, the pest or weed control at 500 g/ha (cocklebur; Xanthium strumarium, post-emergence, postemergence, 500 g ai/ha, scale 0 to 100, 0 is no effect, 100 is complete control, read-out: Cocklebur plant response rating) was 60% and the “Plant response rating (0 to 100 scale), Corn” value (corn; [4]) was 90. For the same compound, the plant injury at 125 g/ha (corn; Zea mays, post-emergence, 125 g ai/ha, visual rating, scale 0 (no effect) to 100 (complete control), read-out: Corn plant response rating) was 0%, the plant injury at 500 g/ha (corn; Zea mays, post-emergence, postemergence, 500 g ai/ha, scale 0 to 100, 0 is no effect, 100 is complete control, read-out: Corn plant response rating) was 20% and the “Plant response rating (0 to 100 scale), Crabgrass, Large” value (large crabgrass; [4]) was 100. For the same compound, the pest or weed control at 125 g/ha (large crabgrass; Digitaria sanguinalis, post-emergence, 125 g ai/ha, visual rating, scale 0 (no effect) to 100 (complete control), read-out: Crabgrass, Large plant response rating) was 0%, the pest or weed control at 500 g/ha (large crabgrass; Digitaria sanguinalis, post-emergence, postemergence, 500 g ai/ha, scale 0 to 100, 0 is no effect, 100 is complete control, read-out: Crabgrass, Large plant response rating) was 80% and the “Plant response rating (0 to 100 scale), Foxtail, Giant” value (giant foxtail; [4]) was 100. The pest or weed control at 125 g/ha (giant foxtail; Setaria faberi, post-emergence, 336 h, 125 g ai/ha, visual rating, scale 0 (no effect) to 100 (complete control), read-out: Foxtail, Giant plant response rating) was 20%, the pest or weed control at 500 g/ha (giant foxtail; Setaria faberi, post-emergence, 336 h, postemergence, 500 g ai/ha, scale 0 to 100, 0 is no effect, 100 is complete control, read-out: Foxtail, Giant plant response rating) was 70% and the “Plant response rating (0 to 100 scale), Lambsquarters” value (lambsquarters; 125 g ai/ha) was 100. For the same compound, the pest or weed control at 125 g/ha (lambsquarters; Chenopodium album, post-emergence, 336 h, 125 g ai/ha, visual rating, scale 0 (no effect) to 100 (complete control), read-out: Lambsquarters plant response rating) was 90%, the “Plant response rating (0 to 100 scale), Morningglory” value (morningglory; 125 g ai/ha) was 50 and the pest or weed control at 125 g/ha (morningglory; Ipomoea, post-emergence, 336 h, 125 g ai/ha, visual rating, scale 0 (no effect) to 100 (complete control), read-out: Morningglory plant response rating) was 80%. For the same compound, the “Plant response rating (0 to 100 scale), Pigweed” value (pigweed) was 100, the pest or weed control at 125 g/ha (pigweed; Amaranthus retroflexus, post-emergence, 336 h, visual rating, scale 0 (no effect) to 100 (complete control), read-out: Pigweed plant response rating) was 40% and the “Plant response rating (0 to 100 scale), Velvetleaf” value (velvetleaf; 125 g ai/ha) was 50. It also gave a pest or weed control at 125 g/ha (velvetleaf; Abutilon theophrasti, post-emergence, 336 h, 125 g ai/ha, visual rating, scale 0 (no effect) to 100 (complete control), read-out: Velvetleaf plant response rating) of 10%, a pest or weed control at 125 g/ha (blackgrass; Alopecurus myosuroides, post-emergence, 336 h, 125 g ai/ha, visual rating, scale 0 (no effect) to 100 (complete control), read-out: Blackgrass plant response rating) of 40% and a pest or weed control at 500 g/ha (blackgrass; Alopecurus myosuroides, post-emergence, 336 h, postemergence, 500 g ai/ha, scale 0 to 100, 0 is no effect, 100 is complete control, read-out: Blackgrass plant response rating) of 90%. It also gave a plant injury at 125 g/ha (wheat; Triticum aestivum, post-emergence, 336 h, 125 g ai/ha, visual rating, scale 0 (no effect) to 100 (complete control), read-out: Wheat plant response rating) of 20%, a pest or weed control at 125 g/ha (wild oat; Avena fatua, post-emergence, 336 h, 125 g ai/ha, visual rating, read-out: Oat, Wild plant response rating) of 30% and a plant injury at 1000 g/ha (rice; Oryza sativa, 336 h, read-out: Rice plant response rating) of 90%. For the same compound, the pest or weed control at 1000 g/ha ([2]; Cyperus difformis, 336 h, read-out: Sedge, Umbrella plant response rating) was 90%, the pest or weed control at 1000 g/ha (ducksalad; Heteranthera limosa, 336 h, read-out: Ducksalad plant response rating) was 90% and the pest or weed control at 1000 g/ha (barnyardgrass [3]; Echinochloa crus-galli, 336 h, read-out: Barnyardgrass plant response rating) was 90%.

In the case of CCNC(=O)c1ccc(F)c(NC(=O)c2nn(C(C)(C)C)nc2C)c1 [Compound 377], the “Plant response rating (0 to 100 scale), Barnyardgrass” value (barnyardgrass [1]; [4]) is reported as 0, the “Barnyardgrass plant response rating” value (barnyardgrass [1]; [5]) is reported as 0 and the “Barnyardgrass plant response rating” value (barnyardgrass [1]; [6]) is reported as 0. The “Plant response rating (0 to 100 scale), Surinam Grass” value (Surinam grass; 125 g ai/ha) was 0, the “Surinam Grass plant response rating” value (Surinam grass; [5]) was 0 and the “Surinam Grass plant response rating” value (Surinam grass; [7]) was 10. For the same compound, the “Plant response rating (0 to 100 scale), Cocklebur” value (cocklebur; [4]) was 0, the “Cocklebur plant response rating” value (cocklebur; [5]) was 0 and the “Cocklebur plant response rating” value (cocklebur; [6]) was 0. The “Plant response rating (0 to 100 scale), Corn” value (corn; [4]) was 0, the “Corn plant response rating” value (corn; [5]) was 0 and the “Corn plant response rating” value (corn; [6]) was 10. The “Plant response rating (0 to 100 scale), Crabgrass, Large” value (large crabgrass; [4]) was 20, the “Crabgrass, Large plant response rating” value (large crabgrass; [5]) was 0 and the “Crabgrass, Large plant response rating” value (large crabgrass; [6]) was 0. The “Plant response rating (0 to 100 scale), Foxtail, Giant” value (giant foxtail; [4]) was 0, the “Foxtail, Giant plant response rating” value (giant foxtail; [5]) was 0 and the “Foxtail, Giant plant response rating” value (giant foxtail; [6]) was 10. The “Plant response rating (0 to 100 scale), Lambsquarters” value (lambsquarters; 125 g ai/ha) was 0, the “Lambsquarters plant response rating” value (lambsquarters; [5]) was 60 and the “Lambsquarters plant response rating” value (lambsquarters; [7]) was 70. The “Plant response rating (0 to 100 scale), Morningglory” value (morningglory; 125 g ai/ha) was 0, the “Morningglory plant response rating” value (morningglory; [5]) was 0 and the “Morningglory plant response rating” value (morningglory; [7]) was 60. The “Plant response rating (0 to 100 scale), Pigweed” value (pigweed) was 60, the “Pigweed plant response rating” value (pigweed; visual rating, scale 0 (no effect) to 100 (complete control), postemergence) was 30 and the “Plant response rating (0 to 100 scale), Velvetleaf” value (velvetleaf; 125 g ai/ha) was 0. The “Velvetleaf plant response rating” value (velvetleaf; [5]) was 20, the “Velvetleaf plant response rating” value (velvetleaf; [7]) was 40 and the “Blackgrass plant response rating” value (blackgrass; [5]) was 0. The “Blackgrass plant response rating” value (blackgrass; [6]) was 0, the “Wheat plant response rating” value (wheat; [5]) was 0 and the “Wheat plant response rating” value (wheat; 500 g ai/ha, scale 0 to 100, 0 no effect, 100 complete control, preemergence) was 20. For the same compound, the “Wheat plant response rating” value (wheat; [7]) was 0, the “Oat, Wild plant response rating” value (wild oat; 125 g ai/ha, visual rating, postemergence) was 0 and the “Oat, Wild plant response rating” value (wild oat; Postemergence, 500 g ai/ha) was 0. The “Rice plant response rating” value (rice) was 40, the “Sedge, Umbrella plant response rating” value [2] was 80 and the “Ducksalad plant response rating” value (ducksalad) was 40. The “Barnyardgrass plant response rating” value (barnyardgrass [3]) was 30.
